Source: US7524867B2, “Tetrasubstituted imidazole derivatives as cannabinoid CB1 receptor modulators with a high CB1/CB2 receptor subtype selectivity” (Solvay Pharmaceuticals, B.V., priority 2004, dated 2009)
Read-outs that look alike come from different tables or passages of the source.

How the values were obtained:
[1] = biological target: T1, human cannabinoid CB1 receptor (Homo sapiens, UniProt P21554); test: In vitro affinity for cannabinoid-CB1 receptors ([3H]CP-55,940 radioligand binding, CHO cell membranes); details: for CB1/CB2 ratio: CB1/CB2 receptor subtype selectivity (affinity ratio; numerically CB2 nM value divided by CB1 nM value)
T1 construct: expressed in transfected cells; host or cells: Chinese hamster ovary (CHO) cells, stably transfected; membrane preparation
Procedure: In Vitro Affinity for Cannabinoid-CB1 Receptors
After incubation of a freshly prepared cell membrane preparation with the [^3H]-ligand, with or without addition of compounds of the invention, separation of bound and free ligand is performed by filtration over glassfiber filters. Radioactivity on the filter is measured by liquid scintillation counting.
The affinity of the compounds of the invention for CB1 receptors was determined as described above. […] Pharmacokinetic, pharmacodynamic, and other considerations may alter the dose actually administered to a higher or lower value. The dosage expediently administered is 0.001-1000 mg/kg, preferably 0.1-100 mg/kg of patient's bodyweight.

[2] = biological target: T2, human cannabinoid CB2 receptor (Homo sapiens, UniProt P34972); test: In vitro affinity for cannabinoid-CB2 receptors ([3H]CP-55,940 radioligand binding, CHO cell membranes); details: membranes of CHO cells stably transfected with human CB2, mean of at least three independent experiments
T2 construct: expressed in transfected cells; host or cells: Chinese hamster ovary (CHO) cells, stably transfected; membrane preparation
Procedure: In Vitro Affinity for Cannabinoid-CB2 Receptors
The affinity of the compounds of the invention for cannabinoid CB2 receptors can be determined using membrane preparations of Chinese hamster ovary (CHO) cells in which the human cannabinoid CB2 receptor is stably transfected in conjunction with [^3H]CP-55,940 as radioligand. After incubation of a freshly prepared cell membrane preparation with the [^3H]-ligand, with or without addition of compounds of the invention, separation of bound and free ligand is performed by filtration over glassfiber filters. Radioactivity on the filter is measured by liquid scintillation counting.

T1 sequence (P21554 whole entry): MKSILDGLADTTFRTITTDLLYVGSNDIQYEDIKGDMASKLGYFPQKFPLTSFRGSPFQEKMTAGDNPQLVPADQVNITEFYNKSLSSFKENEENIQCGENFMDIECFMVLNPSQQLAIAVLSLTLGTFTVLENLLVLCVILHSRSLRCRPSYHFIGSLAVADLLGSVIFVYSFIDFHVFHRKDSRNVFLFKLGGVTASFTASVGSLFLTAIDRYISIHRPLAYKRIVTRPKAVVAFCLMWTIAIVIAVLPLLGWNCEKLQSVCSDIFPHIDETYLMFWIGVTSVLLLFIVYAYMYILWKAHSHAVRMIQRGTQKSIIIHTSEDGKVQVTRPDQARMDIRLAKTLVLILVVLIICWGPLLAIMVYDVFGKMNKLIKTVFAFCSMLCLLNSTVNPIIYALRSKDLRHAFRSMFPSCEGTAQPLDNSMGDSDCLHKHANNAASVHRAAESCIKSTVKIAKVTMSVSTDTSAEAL
T2 sequence (P34972 whole entry): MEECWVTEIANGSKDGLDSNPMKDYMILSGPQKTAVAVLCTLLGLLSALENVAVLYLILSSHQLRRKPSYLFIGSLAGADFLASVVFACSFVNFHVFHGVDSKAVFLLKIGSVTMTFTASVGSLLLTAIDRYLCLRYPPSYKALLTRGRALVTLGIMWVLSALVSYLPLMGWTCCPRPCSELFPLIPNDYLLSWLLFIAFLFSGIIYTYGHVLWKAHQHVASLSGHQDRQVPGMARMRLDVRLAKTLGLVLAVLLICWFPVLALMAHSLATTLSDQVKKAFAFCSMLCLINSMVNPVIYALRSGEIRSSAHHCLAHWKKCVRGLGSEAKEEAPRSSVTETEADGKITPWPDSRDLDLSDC

Row | Compound | melting point [°C] | Ki [1] [nM] | CB1/CB2 ratio [1] | Ki [2] [nM] | Ki ([1]; receptor affinity, membranes of CHO cells stably transfected with human CB1, [3H]CP-55,940, mean of at least three independent experiments, read-out: CB1) [nM]
1 | CSc1c(C(=O)NN2CCCCC2)nc(-c2ccccc2Cl)n1-c1ccc(Cl)cc1 | 192 to 193 |  |  |  | 
2 | CS(=O)(=O)c1c(C(=O)NN2CCCCC2)nc(-c2ccc(Cl)cc2Cl)n1-c1ccc(Cl)cc1 [compound 1, 1-(4-Chlorophenyl)-2-(2,4-dichlorophenyl)-5-methylsulfonyl-N-(piperidin-1-yl)-1H-imidazole-4-carboxamide] |  | 12 | 638 | 7650 | 
3 | CSc1c(C(=O)NN2CCCCC2)nc(-c2ccc(Cl)cc2Cl)n1-c1ccc(Cl)cc1 [compound 6, 1-(4-Chlorophenyl)-2-(2,4-dichlorophenyl)-5-methylsulfanyl-N-(piperdin-1-yl)-1H-imidazole-4-carboxamide] |  |  | 171 | 2060 | 
4 | CSc1c(C(=O)NN2CCCC2)nc(-c2ccc(Cl)cc2Cl)n1-c1ccc(Cl)cc1 [compound 9, 1-(4-chlorophenyl)-2-(2,4-dichlorophenyl)-5-methylsulfanyl-N-(pyrrolidin-1-yl)-1H-imidazole-4-carboxamide] |  | 5 | >200 | > 1000 | 
5 | CSc1c(C(=O)NN2CCCCCC2)nc(-c2ccc(Cl)cc2Cl)n1-c1ccc(Cl)cc1 [compound 10, 1-(4-chlorophenyl)-2-(2,4-dichlorophenyl)-5-methylsulfanyl-N-(azepan-1-yl)-1H-imidazole-4-carboxamide] |  |  | >142 | > 1000 | 7
